Laboratory results: US20220401514A1, “ANTIMICROBIAL, BACTERIOPHAGE-DERIVED POLYPEPTIDES AND THEIR USE AGAINST GRAM-NEGATIVE AND ACID-FAST BACTERIA” (CONTRAFECT CORPORATION, priority 2019, published 2022)
Values after ≈ are worked out from the molar mass of the structure shown.

Test system: Mycobacterium tuberculosis strains
Test: microbe, parasite or virus in culture
Description: MIC values for various Chp peptides were determined using the CLSI method for broth microdilution in 96-well microtiter format.
Next, MIC values for various Chp peptides were determined using the CLSI method above for broth microdilution in 96-well microtiter format for two different Mycobacterium tuberculosis strains. The MIC was determined as explained above for the NTM strains.

With `NC[C@H]1O[C@H](O[C@H]2[C@H](O)[C@@H](O[C@H]3O[C@H](CO)[C@@H](O)[C@H](N)[C@H]3O)[C@H](N)C[C@@H]2N)[C@H](N)C[C@@H]1O` [tobramycin, reference compound] as the compound, how does the MIC (ATCC25177) read?
The MIC was 4 µg/mL (≈ 8.56 µM).

And the MIC (ATCC35817)?
Its MIC is 4 µg/mL (≈ 8.56 µM).
